Patent US12029682B2, “Spray ejector mechanisms and devices providing charge isolation and controllable droplet charge, and low dosage volume ophthalmic administration” (EYENOVIA, INC., priority 2012, dated 2024)
Entries after “also recorded” stand apart in the source; their conditions may differ.

Key:
[1] = tested on: glaucomatous beagles; assay: Intraocular pressure (IOP), TonoVet, in glaucomatous beagles; assay type: in vivo, beagle dog
[2] = tested on: glaucomatous beagles; assay: Ocular irritation observations in glaucomatous beagles; assay type: in vivo, beagle dog; settings: 6 μl of 0.03% via spray ejector device, compared to traditional eye drop treatment
Method: Active drug delivery begins on study day eight. For five days, IOP and PD measurements are taken at 0900. Immediately after 0900 measurements (time 0), each animal receives 6 μl of generic latanoprost in its assigned eye with the ejector device, followed by a second dosing 3 minutes later of an additional 6 μl (to avoid overloading the conjunctival sac). The contralateral eye receives a clinical dose (one drop) of the same commercially-available topical drug from FDA approved container (positive control). The ejector device is checked for accuracy before and after every use (Table 1). Standard measurements continue throughout each day (at 0:30, 0:45, 1, 2, 7 hrs). Possible endpoints include, but are not limited to, excessive ocular irritation, ocular damage, or other illness and injury. […]
On study days 5-9, IOP and PD measurements were taken at approximately 0900 h (time 0). Immediately after these measurements, each animal received 6 μl of 0.03% bimatoprost in its assigned eye via the spray ejector device. The contralateral eye received a clinical dose (one drop) of the same commercially available topical drug from a traditional eyedropper (positive control). The spray ejector device was checked for accuracy before and after every use and required a 10% delivered dose accuracy in pretreatment. Standard measurements continued throughout each day at 0, 1, 2, 4, and 7 hours. Possible endpoints included, but were not limited to, excessive ocular irritation, ocular damage, and other illness or injury. No statistical crossover was utilized for this study.
Ophthalmic examinations (slit lamp with fluorescein and indirect ophthalmoscopy) were performed on the eyes of each animal prior to Study Day 1. Ocular findings were scored according to the McDonald-Shadduck Score System. Ocular findings were recorded using a standardized data collection sheet. Macroscopic observations were recorded in accordance with the Draize Scale for Scoring Ocular Lesions. Animals were assigned treatments based on basic randomization prior to study day one.
Following a 7 day rest period, the eye choice was reversed. Measurements of IOP, heart rate and pupil diameter (PD) were made at 0:15, 0:30, 0:45, 1, 2, 4, 7, and 18 hours in the primary and crossover study. A veterinary ophthalmologist evaluated each test subject before and after the study for evidence of ocular side effects.
Ophthalmic examinations (slit lamp with fluorescein and indirect ophthalmoscopy) were performed on the eyes of each animal prior to study day 1. Ocular findings were scored according to the McDonald-Shadduck score system and macroscopic observations were recorded in accordance with the Draize scale for scoring ocular lesions. Ocular findings were recorded using a standardized data collection sheet.

## CCNC(=O)CCC/C=C\C[C@@H]1[C@@H](/C=C/[C@@H](O)CCc2ccccc2)[C@H](O)C[C@@H]1O [bimatoprost]
[1]; 0.03%, one drop by eyedropper
  duration of the dose vs spray ejector device: greater
[1]; 6 μl of 0.03% once daily morning via spray ejector device vs one drop (26-30 μl)
  effectiveness at lowering/controlling IOP vs traditional therapy: as effective at lowering IOP and constricting the pupil as traditional therapy; also recorded: as effective at controlling IOP as is the traditional therapy
[1]; 6 μl of 0.03% via spray ejector device
  IOP values vs baseline: lower than baseline
[2]
  irritation: Markedly less irritation; also recorded: Lack of ocular irritation
